The target of assay [1] is T1, β3Gal-T5 (Homo sapiens, UniProt Q9Y2C3, M85T).
T1 construct: designed to exclude the hydrophobic transmembrane segment and to encode amino acid residues 25-310; secretion signal of vector pAcGP67B (gp67); made in house; host or cells: baculovirus; Sf9 cells (media) and High Five cells (serum-free medium, partially purified)
T1 sequence (Q9Y2C3 25-310 M85T): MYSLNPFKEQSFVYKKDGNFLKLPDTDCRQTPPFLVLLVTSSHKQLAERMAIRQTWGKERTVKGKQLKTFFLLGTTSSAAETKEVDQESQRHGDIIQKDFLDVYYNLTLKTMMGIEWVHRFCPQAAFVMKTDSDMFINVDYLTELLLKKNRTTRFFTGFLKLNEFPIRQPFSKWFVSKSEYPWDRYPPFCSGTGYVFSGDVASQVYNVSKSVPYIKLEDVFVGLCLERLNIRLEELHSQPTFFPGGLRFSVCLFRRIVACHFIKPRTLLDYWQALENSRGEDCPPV
In words: Galactosyltransferase assay, partially purified secreted recombinant β3Gal-T5, saccharide acceptors. It counts as biochemical. Particulars: for β3Gal-T5 activity, substrate concentration 1 mM: acceptor 1 mM; for β3Gal-T5 activity, substrate concentration 5 mM: acceptor 5 mM. The source says:
PCR product was cloned into the BamHI site of pAcGP67B (Pharmingen). […] This PCR product was cloned into the BamHI site of pVL1193 (Pharmingen). Both soluble and full length constructs were fully sequenced to confirm fidelity. Plasmids […]5-full were co-transfected with Baculo-GoldTM DNA (Pharmingen) as described previously (Bennett, […]. and Clausen, H. cDNA cloning and expression of a novel human UDP-N-acetyl-alpha-D-galactosamine. Polypeptide N-acetyl-galactosaminyl-transferase, GalNAc-T3. J. Biol. Chem. 271:17006-17012, 1996). Recombinant Baculo-virus were obtained after two successive amplifications in Sf9 cells grown in serum-containing medium, and titers of virus were estimated by titration in 24-well plates with monitoring of enzyme activities. […] J. Biol. […] J. Biol. […] Polypeptide N-acetyl-galactosaminyl-transferase, GalNAc-T3. J. Biol. Chem. 271:17006-17012, 1996). For large scale expression amplified virus was used to infect High FiveTM cells grown in serum-free media (Invitrogen) in upright roller bottles shaking at 140 rpm and 27° C. The kinetic properties were determined with partially purified, secreted forms of the enzymes. Semipurification of enzymes from serum-free medium of infected High-FiveTM cells was performed by sequential Amberlite, DEAE-Sephacel and 5-Sepharose chromatography as described previously ([…]., et al. […] J. Biol. Chem. 272:23503-23514, 1997). Comparisons of enzymes were performed relatively to the activity obtained with βGlcNAc-Bz1 (Tables II and III). Full length enzymes were assayed with 1% Triton CF54 homogenates of washed cells. […] Reaction products were quantified by Dowex-1 chromatography. […] P. and Clausen, H. […] J. Biol. Chem. 273:29295-29305, 1998). The transfer of Gal was evaluated after acid precipitation by filtration through Whatman GF/C glass fibre filters. […] Assays with glycolipid acceptors were conducted as previously described (Holmes, E. H. […] Arch Biochem Biophys 270:630-646, 1989) in reaction mixtures containing 2.5 μmol HEPES buffer, pH 7.2, μmol MnCl2, 100 μg taurodeoxycholate or Triton CF-54, 20 μg acceptor glycolipid, 15 nmol UDP-[^14C]-galactose (13,000 cpm/nmol) and enzyme in a total volume of 100 μl. Conditions for incubation and product isolation were as previously described (Id.).

Assay [2] has as its target T2, β3Gal-T1 (Homo sapiens, UniProt Q9Y5Z6).
T2 construct: The kinetic properties were determined with partially purified, secreted forms of the enzymes; made in house; host or cells: baculovirus; Sf9 / High Five insect cells, medium
T2 sequence (Q9Y5Z6 27-326 limits assumed): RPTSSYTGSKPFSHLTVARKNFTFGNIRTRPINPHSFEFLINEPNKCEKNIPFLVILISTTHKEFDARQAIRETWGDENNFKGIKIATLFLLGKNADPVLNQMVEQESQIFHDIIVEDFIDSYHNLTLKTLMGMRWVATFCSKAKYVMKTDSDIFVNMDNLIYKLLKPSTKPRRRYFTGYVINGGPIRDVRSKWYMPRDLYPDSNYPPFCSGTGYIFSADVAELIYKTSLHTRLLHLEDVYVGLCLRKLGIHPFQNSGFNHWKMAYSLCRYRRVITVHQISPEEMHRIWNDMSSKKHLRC
The experiment in a line: Galactosyltransferase assay, recombinant β3Gal-T1, saccharide acceptors. It counts as biochemical.

The values below come from US7332279B2 (Glycozym APS, priority 1999, dated 2008).

Molecules are shown by their SMILES. Like-named read-outs stand apart in the source and are kept apart here.

One may read the Vmax as the top rate of the reaction or transport when substrate is in excess. One may read the Km as the concentration of substrate that gives half-maximal velocity.

In the case of `CC(=O)N[C@H]1[C@H](OC[C@H]2O[C@H](Oc3ccc([N+](=O)[O-])cc3)[C@H](NC(C)=O)[C@@H](O[C@@H]3O[C@H](CO)[C@H](O)[C@H](O)[C@H]3O)[C@H]2O)O[C@H](CO)[C@@H](O)[C@@H]1O` [βGlcNAc(1,6)[βGal(1,3)]αGalNAc-p-Nph], in assay [1], the “β3Gal-T5 activity, acceptor 0.2 mM” value is 0.0 nmol/min; the “β3Gal-T5 ratio to value with βGlcNAc-Bzl, acceptor 0.2 mM” value is reported as “(0.0)”; the “β3Gal-T5 activity, acceptor 2 mM” value is 0.01 nmol/min; the “β3Gal-T5 ratio to value with βGlcNAc-Bzl, acceptor 2 mM” value is listed as “(0.1)”. Besides, in assay [2], the “β3Gal-T1 activity, acceptor 0.2 mM” value stood at 0.0 nmol/min; the “β3Gal-T1 ratio to value with βGlcNAc-Bzl, acceptor 0.2 mM” value is on record as “(0.0)”; the “β3Gal-T1 activity, acceptor 2 mM” value was 0.0 nmol/min; the “β3Gal-T1 ratio to value with βGlcNAc-Bzl, acceptor 2 mM” value is recorded as “(0.0)”.

For the molecule `CC(=O)N[C@H]1[C@H](OCc2ccccc2)O[C@H](CO)[C@@H](O)[C@@H]1O` [β-D-GlcNAc-Bzl], the Vmax in assay [1] (Table V) is reported as 873.4 pmol/min. Besides, the Km in assay [1] (Table V, read-out: Km) is 20400 µM. Also, in assay [1], the “β3Gal-T5 activity, substrate concentration 1 mM” value was 1.5 nmol/min/mL and the “β3Gal-T5 activity, substrate concentration 5 mM” value worked out at 3.9 nmol/min/mL. Besides, in assay [1] (β-D-GlcNAc-Bzl at 20 mM), the β3Gal-T5 activity with β-D-GlcNAc-Bzl (Table III) is 0.1 nmol/min and the “β3Gal-T5 activity with βGlcNAc-Bzl” value came to 0.1 nmol/min. In assay [2] (β-D-GlcNAc-Bzl at 80 mM), the β3Gal-T1 activity with β-D-GlcNAc-Bzl (Table III) is 0.03 nmol/min and the “β3Gal-T1 activity with βGlcNAc-Bzl” value was found to be 0.03 nmol/min.

As for `CC(=O)NC1C(OC2C(O)C(CO)OC(Oc3ccc([N+](=O)[O-])cc3)C2NC(C)=O)OC(CO)C(O)C1O` [β-D-GlcNAc-(1–3)-α-D-GalNAc-p-Nph], in assay [1], the “β3Gal-T5 activity, acceptor 0.2 mM” value is 0.3 nmol/min; the “β3Gal-T5 ratio to value with βGlcNAc-Bzl, acceptor 0.2 mM” value is “(0.3)”; the “β3Gal-T5 activity, acceptor 2 mM” value turned out to be 0.2 nmol/min; the “β3Gal-T5 ratio to value with βGlcNAc-Bzl, acceptor 2 mM” value is “(2.0)”. For the same molecule, in assay [1], the “β3Gal-T5 activity, substrate concentration 1 mM” value was 10.8 nmol/min/mL and the “β3Gal-T5 activity, substrate concentration 5 mM” value was 34.4 nmol/min/mL. Moreover, in assay [1] (Table V), the Vmax was 931.1 pmol/min. Besides, in assay [1] (Table V, read-out: Km), the Km is 2800 µM. Further, the Km in assay [1] (acceptor substrate, read-out: apparent Km of β3Gal-T5) came out at 2800 µM. Further, in assay [2], the “β3Gal-T1 activity, acceptor 0.2 mM” value turned out to be 0.0 nmol/min; the “β3Gal-T1 ratio to value with βGlcNAc-Bzl, acceptor 0.2 mM” value is given as “(0.0)”; the “β3Gal-T1 activity, acceptor 2 mM” value came out at 0.0 nmol/min; the “β3Gal-T1 ratio to value with βGlcNAc-Bzl, acceptor 2 mM” value is listed as “(0.0)”.
